From patent publication US20160115192A1, “ANTIOXIDANT, ANTI-INFLAMMATORY AND ANTICANCER DERIVATIVES OF TRIPTOLIDE AND NANOSPHERES THEREOF” (CEDARS-SINAI MEDICAL CENTER, priority 2013, published 2016)

Columns and labels:
[1] = cited from earlier work
[2] = 30 minutes after administration; cited from earlier work
B7-H1 = settings: known effect, background; cited from earlier work
B7-H1 (PD-L1) = assay: Inhibition of interferon-γ-dependent expression of B7-H1 (PD-L1) on cancer cells; format: cell-based

| SMILES | solubility in water [1] | lactone form hydrolyzed to an open ring [2] [%] | expression of B7-H1 by cancer cells (B7-H1) | inhibitory effect on interferon-γ-dependent expression of B7-H1 (PD-L1) (B7-H1 (PD-L1); MDA-MB-231 triple negative breast cancer cell, FIG. 9) | inhibitory effect on interferon-γ-dependent expression of B7-H1 (PD-L1) (B7-H1 (PD-L1); MDA-MB-468 triple negative breast cancer cell, FIG. 10) | inhibitory effect on interferon-γ-dependent expression of B7-H1 (PD-L1) (B7-H1 (PD-L1); U-87 MG glioma cells, FIG. 8) | inhibitory effect on interferon-γ-dependent expression of B7-H1 (PD-L1) (B7-H1 (PD-L1); U-87 stem-like cells, FIG. 5) | inhibitory effect on interferon-γ-dependent expression of B7-H1 (PD-L1) (B7-H1 (PD-L1); U-251 glioma cell, FIG. 7) | inhibitory effect on interferon-γ-dependent expression of B7-H1 (PD-L1) (B7-H1 (PD-L1); cancer stem cell (CSC-5), FIG. 6) |
| --- | --- | --- | --- | --- | --- | --- | --- | --- | --- |
| CC[C@@]1(O)C(=O)OCc2c1cc1n(c2=O)Cc2cc3ccccc3nc2-1 [camptothecin, (S)-4-ethyl-4-hydroxy-1H-pyrano-[3′,4′:6,7]indolizino[1,2-b]quinoline-3, 14(4H,12H)-dione] | essentially insoluble | 50 |  |  |  |  |  |  |  |
| CC(C)[C@]12O[C@H]1[C@@H]1O[C@]13[C@]1(O[C@H]1C[C@H]1C4=C(CC[C@@]13C)C(=O)OC4)[C@@H]2O [triptolide, Triptolide] |  |  | inhibit | inhibitory effect | inhibitory effect | Inhibitory effect | inhibitory effect | inhibitory effect | inhibitory effect |
